From patent US20190133997A1, “ARTEMISININ ANALOG, AND USE, METHOD, AND COMPOSITION FOR PROMOTING LIPID CATABOLISM AND IMPROVING SUGAR METABOLISM” (FUDAN UNIVERSITY, priority 2016, published 2019)

Experiments:
BMP4-directed C3H10T1/2 [1] = assay: Artemether on BMP4-directed C3H10T1/2 differentiation (morphology, Western blot, MitoTracker Green); type: cell-based
Procedure: 7.5×10^5 C3H10T1/2 were seeded in a 3.5 cm cell culture dish, and cultured for 3-5 days in a maintenance medium. On the next day of seeding, BMP4 (at a final concentration of 20 ng/ml) was added to the medium to allow the cells to proliferate to contact inhibition. Two days after the contact inhibition was reached, the medium was changed to induced differentiation medium, and the induced mixture (0.5 mMol/L Mix, 1 μMol/L Dex, 1 ng/ml insulin, 100 nMol/L indometacin, 1 nM T3) was added at the same time. This day was defined as Day 0 of differentiation. After 2 days of induction, fresh induced differentiation medium was replaced, and 1 ng/ml insulin and 1 nMol/L T3 were added. After another 2 days of culture, the fresh medium was replaced every other day until the culture was differentiated to Day 8 at which time the cells were mature. At this time, the differentiated and mature cells were white adipocytes.
7.5×10^5 C3H10T1/2 were seeded in a 3.5 cm cell culture dish, and cultured for 3-5 days in a maintenance medium. On the next day of seeding, BMP7 (at a final concentration of 100 ng/ml) was added to the medium to allow the cells to proliferate to contact inhibition. Two days after the contact inhibition was reached, the medium was changed to induced differentiation medium, and the induced mixture (0.5 mM Mix, 1 μM Dex, 1 ng/ml insulin, 100 nM indometacin, 1 nM T3) was added at the same time. This day was defined as Day 0 of differentiation. After 2 days of induction, fresh induced differentiation medium was replaced, and 1 ng/ml insulin and 1 nM T3 were added. After another 2 days of culture, the fresh medium was replaced every other day until the culture was differentiated to Day 8 at which time the cells were mature. At this time, the cells differentiated to mature were brown adipocytes.
On Day 0 of differentiation, that is, when the induced differentiation mixture was added, the compound was added to the medium at a storage concentration of 10 mMol/L, and the final concentrations were […], respectively. When the fresh medium was replaced, the corresponding compound was supplemented, and the compound was always with the cells until the cells differentiated to mature.
C3H10T1/2 differentiated to mature was induced in a 3.5 cm culture dish, with the method of differentiation referring to Method 2.4.1. 300 μl Trizol was added to fully lyse the cells, and the lysate was transferred into a 1.5 ml centrifuge tube and heated at 100° C. for 10 min. The lysate was centrifuged at 13000 g for 10 min at 4° C., the lipid in the upper layer was removed, and the clarified lysate in the middle layer was transferred into a new centrifuge tube. 2.5 μl lysate was taken and quantified by BCA method, and 200 μl lysate was mixed with 50 μl loading buffer, heated at 100° C. for 10 min, and stored at −20° C. until use.
[…] C3HOT1/2 protein was loaded onto 10% polyacrylamide gel, and electrophoresis was carried out, with electrophoresis being carried out on base gel at 80V, and on separating gel at 100V, until the target band was separated. The protein was transferred to a PVDF membrane in an ice bath at 100 V for 100 min. After the transfer was completed, it was blocked for 1 hr in 5% skim milk prepared with TBST (TBS buffer+0.5% Tween), and incubated with specific antibodies overnight at 4° C. The next day, the PVDF membrane was washed three times with TBST at room temperature for 10 min, incubated with the corresponding secondary antibody at room temperature for 1 hr, then washed three times with TBST at the same condition as that of primary antibody, incubated with chemiluminescent reagent at room temperature for 1 min, detected with ImageQuant LAS4000 Mini Automatic chemiluminescence apparatus and exposed, and the results were recorded.
C3H10T1/2 differentiated to mature was induced in a 3.5 cm culture dish. The medium was removed and 1 ml PBS was added. […]

high fat-fed mice [2] = assay: Subcutaneous artemether, weight gain induced by high-fat diet; type: in vivo, Male C57BL/6J mice; settings: eight weeks
Procedure: (§1) The mice were breeded in the SPF animal laboratory of the Laboratory Animal Center of Fudan University at a room temperature of 21° C.-23° C. with a 12-hour light/dark cycle. […] When the mice were grown to 8-week old, they were randomly divided into a control group and an administration group, with 8 mice in each group. While the mice were fed with a high-fat diet, artemether was injected subcutaneously. Artemether was diluted in PBS at a concentration of […], and injected into bilateral inguinal region, with 200 μl being injected into each side. Mice in control group were injected with the same volume of PBS. Administration was continued for eight weeks and the weight of mice was recorded weekly.

BMP4-directed C3H10T1/2 [3] = assay: Artemisinin and analogues on BMP4-directed C3H10T1/2 (morphology, Western blot); type: cell-based; settings: concentration shown in FIG. 8, from Day 0 of differentiation; vs control
Procedure: 4.3.1 Culture and Differentiation of C3H10T1/2 According to Method 2.4.1.
Artemisinin, artesunate and dihydroartemisinin were stored in DMSO at a storage concentration of 10 mMol/L. The concentration shown in FIG. 8 was added on Day 0 of differentiation. Fresh medium was replaced every two days, and the corresponding concentrations of compounds were added until the cells differentiated to mature.
The method for extracting C3H10T1/2 cell total protein was the same as 2.4.3;
Western blot method and catalog number of antibody was the same as 2.4.4.

high fat-fed mice [4] = assay: Subcutaneous artemether, cold exposure and UCP1 immunohistochemistry of subcutaneous fat in high fat-fed mice; type: in vivo, Male C57BL/6J mice; settings: high-fat diet, subcutaneous injection, eight weeks
Procedure: as §1, with “eight weeks. Mice were fasted and housed in a breeding box at 4° C. The rectal temperature was measured every 2 hours. The mice were sacrificed by cervical dislocation after 6 hours,” for “eight weeks”, “the inguinal fat was removed for histological analysis. The histological analysis including tissue fixation, paraffin embedding, sectioning and immunohistochemistry experiment” for “the weight”, “of UCP1” for “of mice”, “was commissioned by Shanghai Saige Biotech Co., Ltd.” for “was recorded weekly.”

[5] = artemether 5, 10, 15 Mol/L, Western blot, β-actin reference, concentration-dependent tendency

In the case of `CO[C@H]1O[C@@H]2O[C@@]3(C)CC[C@H]4[C@H](C)CC[C@@H]([C@H]1C)[C@@]24OO3` [artemether], the “protein level of PGC1α” value (BMP4-directed C3H10T1/2 [1]; [5]) is reported as “increased”, the “protein level of PRDM16” value (BMP4-directed C3H10T1/2 [1]; [5]) is reported as “increased” and the “protein level of UCP1” value (BMP4-directed C3H10T1/2 [1]; [5]) is reported as “increased”. The “protein level of CytoC” value (BMP4-directed C3H10T1/2 [1]; artemether 5, 10, 15 μMol/L, Western blot, β-actin reference, concentration-dependent tendency) was “increased”, the “mitochondrial biosynthesis (MitoTracker Green)” value (BMP4-directed C3H10T1/2 [1]; artemether 15 μMol/L) was “significantly enhanced” and the “cell morphology of BMP4-directed C3H10T1/2” value (BMP4-directed C3H10T1/2 [1]; artemether 15 μMol/L during differentiation, similar to BMP7-directed cell morphology) was “exhibited brown fat-like characteristics”. For the same molecule, the weight of mice (high fat-fed mice [2]; subcutaneous injection 15 Mol/L in PBS, 200 μl each inguinal side, statistically different after six weeks) was “significantly lower than that of mice in control group”, the “weight gain of mice” value (high fat-fed mice [2]; subcutaneous injection) was “significantly slower than that of mice in control group” and the “cell morphology of C3H10T1/2” value (BMP4-directed C3H10T1/2 [3]) was “exhibited brown adipocyte-like characteristics”. For the same molecule, the “body temperature in an environment of 4° C.” value (high fat-fed mice [4]) was “significantly higher than that of mice in control group” and the “UCP1 expression in subcutaneous fat (immunohistochemistry)” value (high fat-fed mice [4]; after 6 hours at 4° C.) was “exhibited significant UCP1 expression”.
